The values that follow come from US20180244611A1, “Modulators of the Cystic Fibrosis Transmembrane Conductance Regulator Protein and Methods of Use” (AbbVie S.à.r.l., priority 2017, published 2018).

Assay [1] concerns the target T1, F508delCFTR (Homo sapiens, UniProt P13569, DEL508-508).
T1 construct: expressed in transfected cells; host or cells: CFBE41o- human lung-derived epithelial cells (CFBE41o-F508delCFTR-HRP), doxycycline-inducible
The assay can be described thus: Cell Surface Expression-Horse Radish Peroxidase (CSE-HRP) assay, test compound without co-corrector.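 For Emax: percent of on-plate 2 µM positive control corrector response over DMSO.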 It is filed as cell-based. The settings on record: for EC50: CSE-HRP assay, test compound without co-corrector; for Emax: maximum at any tested concentration, normalized to on-plate positive control, without co-corrector. In outline: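 Compound without co-corrector was tested at eight 3-fold concentrations, top 20 μM, for 18-24 h at 33° C on doxycycline-induced (0.5 μg/mL, 72 h) CFBE41o- F508delCFTR-HRP cells. After DPBS washes, luminol luminescence gave % activity relative to on-plate positive control minus DMSO; EC50 came from triplicate-plate sigmoidal fitting.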

Assay [2] has as its target T1, F508delCFTR. The assay can be described thus: Cell Surface Expression-Horse Radish Peroxidase (CSE-HRP) assay, test compound with co-corrector.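 For Maximum % activity (with co-corrector): percent of 2 µM positive control corrector over DMSO; co-corrector is that same compound.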 It is filed as cell-based. The conditions noted are these: for EC50: CSE-HRP assay, test compound with 2 μM co-corrector; for Maximum % activity (with co-corrector): maximum at any tested concentration, normalized to on-plate positive control, with 2 μM co-corrector. In outline: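 Surface-expression read-out: luminol luminescence from an HRP tag in the fourth exofacial loop of F508delCFTR, in doxycycline-induced (0.5 μg/mL, 72 h) CFBE41o- cells. Compound plus 2 μM co-corrector added for 18-24 h at 33° C., 8-point 3-fold series up to 20 μM. EC50 from a sigmoidal fit with variable Hill slope, normalised to positive control, triplicate plates.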

T1 sequence (P13569 with tags, fused parts or gaps DEL508-508): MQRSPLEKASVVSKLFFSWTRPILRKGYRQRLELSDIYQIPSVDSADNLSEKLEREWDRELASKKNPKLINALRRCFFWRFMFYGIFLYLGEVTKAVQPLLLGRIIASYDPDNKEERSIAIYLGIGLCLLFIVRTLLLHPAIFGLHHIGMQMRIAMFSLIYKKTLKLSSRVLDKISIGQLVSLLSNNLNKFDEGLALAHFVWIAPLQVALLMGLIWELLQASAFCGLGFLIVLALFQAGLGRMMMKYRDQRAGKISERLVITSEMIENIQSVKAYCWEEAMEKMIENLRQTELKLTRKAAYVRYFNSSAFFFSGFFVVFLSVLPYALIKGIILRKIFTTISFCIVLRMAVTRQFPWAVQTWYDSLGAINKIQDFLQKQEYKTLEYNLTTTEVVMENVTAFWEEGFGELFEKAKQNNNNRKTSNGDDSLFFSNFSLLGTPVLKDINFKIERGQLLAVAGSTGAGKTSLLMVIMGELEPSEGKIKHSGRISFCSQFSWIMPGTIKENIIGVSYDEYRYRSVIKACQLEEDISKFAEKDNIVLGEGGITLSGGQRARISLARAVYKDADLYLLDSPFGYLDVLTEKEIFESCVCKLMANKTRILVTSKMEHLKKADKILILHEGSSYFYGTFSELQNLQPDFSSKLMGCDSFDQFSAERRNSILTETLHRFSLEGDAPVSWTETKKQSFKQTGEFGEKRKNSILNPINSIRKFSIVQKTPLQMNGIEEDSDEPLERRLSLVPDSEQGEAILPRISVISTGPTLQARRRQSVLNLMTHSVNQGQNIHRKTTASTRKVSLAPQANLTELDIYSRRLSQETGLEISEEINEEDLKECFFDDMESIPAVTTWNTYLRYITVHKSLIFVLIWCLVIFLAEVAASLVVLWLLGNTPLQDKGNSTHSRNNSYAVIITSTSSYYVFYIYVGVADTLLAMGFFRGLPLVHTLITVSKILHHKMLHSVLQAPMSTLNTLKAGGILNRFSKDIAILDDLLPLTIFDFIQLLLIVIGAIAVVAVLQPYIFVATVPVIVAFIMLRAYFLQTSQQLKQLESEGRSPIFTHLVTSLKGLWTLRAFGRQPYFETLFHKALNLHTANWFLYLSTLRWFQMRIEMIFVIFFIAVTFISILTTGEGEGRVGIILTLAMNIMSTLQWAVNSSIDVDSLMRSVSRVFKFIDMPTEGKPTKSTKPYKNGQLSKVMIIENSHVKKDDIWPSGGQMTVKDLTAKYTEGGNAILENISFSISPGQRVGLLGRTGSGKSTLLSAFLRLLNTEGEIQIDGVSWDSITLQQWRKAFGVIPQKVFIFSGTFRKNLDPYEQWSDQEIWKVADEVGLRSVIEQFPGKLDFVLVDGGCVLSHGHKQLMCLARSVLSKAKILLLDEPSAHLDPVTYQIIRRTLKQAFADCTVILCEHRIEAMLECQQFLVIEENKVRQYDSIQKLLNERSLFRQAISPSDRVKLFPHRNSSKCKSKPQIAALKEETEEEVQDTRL

The term EC50 denotes the concentration at which the effect is half-maximal. A low value points to higher potency in that assay. As a reminder, the Emax is the greatest response seen or fitted, relative to the assay's reference. On F508delCFTR [1], `Cc1ccccc1S(=O)(=O)NC(=O)C1CCc2c(-c3ccncc3F)cccc21` (stereo not drawn) [III-94] displayed a concentration for a half-maximal effect (EC50) not below 10 µM and an Emax of less than 50%. Further, on F508delCFTR [2], the concentration for a half-maximal effect (EC50) was in the range of 3 to 10 µM; the “Maximum % activity (with co-corrector)” value is “++ (≥150 and <350)”.

`Cc1cnccc1-c1cccc2c1CCC2C(=O)NS(=O)(=O)c1ccccc1C` (stereo not drawn) [III-95]: on F508delCFTR [1], the EC50 was not below 10 µM and the maximum response (Emax) is less than 50%. Besides, at F508delCFTR [2], the concentration for a half-maximal effect (EC50) was not below 10 µM and the “Maximum % activity (with co-corrector)” value is on record as “+ (<150)”.

In the case of `Cc1cc(-c2cccc3c2CCC3C(=O)NS(=O)(=O)c2ccccc2C)ccn1` (stereo not drawn) [III-96], on F508delCFTR [1], the concentration giving a half-maximal response (EC50) was not below 10 µM and the Emax is less than 50%. On F508delCFTR [2], the EC50 was not below 10 µM and the “Maximum % activity (with co-corrector)” value is listed as “+ (<150)”.

On to `Cc1ccccc1S(=O)(=O)NC(=O)C1CCc2c(-c3cn[nH]c3)cccc21` (stereo not drawn) [III-97], for which, at F508delCFTR [1], the 50% effective concentration (EC50) was not below 10 µM and the maximal response (Emax) was less than 50%. In addition, at F508delCFTR [2], the EC50 is not below 10 µM and the “Maximum % activity (with co-corrector)” value is recorded as “+ (<150)”.

At F508delCFTR [1], `Cc1ccccc1S(=O)(=O)NC(=O)C1CCc2c(-c3ccn[nH]3)cccc21` (stereo not drawn) [III-98] returned an EC50 not below 10 µM and a maximum response (Emax) of less than 50%. Also, on F508delCFTR [2], the concentration giving a half-maximal response (EC50) is not below 10 µM and the “Maximum % activity (with co-corrector)” value is listed as “+ (<150)”.

For the compound `Cc1ccccc1S(=O)(=O)NC(=O)C1CCc2c(-c3ccsc3)cccc21` (stereo not drawn) [III-99], at F508delCFTR [1], the 50% effective concentration (EC50) was 3 to 10 µM and the Emax is 50 to 150%. Besides, at F508delCFTR [2], the half-maximal effective concentration (EC50) was in the range of 3 to 10 µM and the “Maximum % activity (with co-corrector)” value was “+++ (≥350)”.

On F508delCFTR [1], `Cc1ccccc1S(=O)(=O)NC(=O)C1CCc2c(-c3ccc(N4CCOCC4)nc3)cccc21` (stereo not drawn) [III-100] came in with an EC50 not below 10 µM and an Emax of less than 50%. Further, on F508delCFTR [2], the EC50 was in the range of 3 to 10 µM and the “Maximum % activity (with co-corrector)” value is reported as “+ (<150)”.

In the case of `Cc1ccccc1S(=O)(=O)NC(=O)C1CCc2c(-c3c[nH]nc3C)cccc21` (stereo not drawn) [III-101], on F508delCFTR [1], the concentration giving a half-maximal response (EC50) was not below 10 µM and the Emax is less than 50%. Moreover, at F508delCFTR [2], the concentration giving a half-maximal response (EC50) was not below 10 µM and the “Maximum % activity (with co-corrector)” value is “+ (<150)”.

On F508delCFTR [1], `Cc1ccccc1S(=O)(=O)NC(=O)C1CCc2c(-c3cnn(C)c3)cccc21` (stereo not drawn) [III-102] returned a half-maximal effective concentration (EC50) not below 10 µM and a maximal effect (Emax) of less than 50%. Further, at F508delCFTR [2], the EC50 was not below 10 µM and the “Maximum % activity (with co-corrector)” value is on record as “+ (<150)”.

Consider `Cc1ccc(-c2cccc3c2CCC3C(=O)NS(=O)(=O)c2ccccc2C)o1` (stereo not drawn) [III-103], for which, on F508delCFTR [1], the EC50 was not below 10 µM and the Emax was less than 50%. On F508delCFTR [2], the 50% effective concentration (EC50) is 3 to 10 µM; the “Maximum % activity (with co-corrector)” value was “++ (≥150 and <350)”.

`Cc1ccccc1S(=O)(=O)NC(=O)C1CCc2c(-c3c(C)nn(C)c3C)cccc21` (stereo not drawn) [III-105]: at F508delCFTR [1], the EC50 was not below 10 µM and the Emax was less than 50%. On F508delCFTR [2], the EC50 is not below 10 µM and the “Maximum % activity (with co-corrector)” value was “+ (<150)”.

On F508delCFTR [1], `Cc1ccccc1S(=O)(=O)NC(=O)C1CCc2c(-c3ccnn3C)cccc21` (stereo not drawn) [III-106] had a 50% effective concentration (EC50) not below 10 µM and a maximal response (Emax) of less than 50%. In addition, at F508delCFTR [2], the EC50 is not below 10 µM and the “Maximum % activity (with co-corrector)” value is “+ (<150)”.

Regarding `COc1cccc2c1CCC[C@H]2C(=O)NS(=O)(=O)c1cccnc1N` [III-107], at F508delCFTR [1], the EC50 lay in the range of 3 to 10 µM and the Emax was 50 to 150%. Also, at F508delCFTR [2], the EC50 lay within 3 to 10 µM and the “Maximum % activity (with co-corrector)” value is “+++ (≥350)”.

At F508delCFTR [1], `Cc1ccc2c(c1)CCC2(C)C(=O)NS(=O)(=O)c1cccc(N)n1` (stereo not drawn) [III-108] registered an EC50 of 3 to 10 µM and a maximal effect (Emax) of 50 to 150%. At F508delCFTR [2], the 50% effective concentration (EC50) is 3 to 10 µM; the “Maximum % activity (with co-corrector)” value is “++ (≥150 and <350)”.

In the case of `COc1cccc2c1CCC[C@H]2C(=O)NS(=O)(=O)c1cccc(N)n1` [III-109], on F508delCFTR [1], the EC50 was not below 10 µM and the Emax was less than 50%. Also, at F508delCFTR [2], the 50% effective concentration (EC50) is not below 10 µM and the “Maximum % activity (with co-corrector)” value is “+ (<150)”.

For the compound `Nc1cccc(S(=O)(=O)NC(=O)C2CCCc3cccc(Cl)c32)n1` (stereo not drawn) [III-110], on F508delCFTR [1], the half-maximal effective concentration (EC50) was not below 10 µM and the maximum response (Emax) was less than 50%. In addition, at F508delCFTR [2], the EC50 was not below 10 µM and the “Maximum % activity (with co-corrector)” value is “+ (<150)”.

For the compound `CCC1(C(=O)NS(=O)(=O)c2ccc(Cl)cc2Cl)CCc2c(Cl)cccc21` (stereo not drawn) [III-113], on F508delCFTR [1], the half-maximal effective concentration (EC50) is not below 10 µM and the Emax is less than 50%. For the same compound, at F508delCFTR [2], the half-maximal effective concentration (EC50) was less than 3 µM; the “Maximum % activity (with co-corrector)” value was “++ (≥150 and <350)”.

On F508delCFTR [1], `CCC1(C(=O)NS(=O)(=O)c2ccc(C)cc2C)CCc2c(Cl)cccc21` (stereo not drawn) [III-114] had an EC50 of 3 to 10 µM and a maximal response (Emax) of less than 50%. In addition, at F508delCFTR [2], the EC50 is less than 3 µM; the “Maximum % activity (with co-corrector)” value is “++ (≥150 and <350)”.
